# Assay results: article PMC11525561, “Gliflozins, sucrose and flavonoids are allosteric activators of lecithin-cholesterol acyltransferase” (Scientific Reports, 2024)
# Read-outs that look alike come from different tables or passages of the source.
# What was measured:
# LCAT [1] = molecular target: T1, LCAT (Homo sapiens, UniProt P04180); experiment: MUP based phospholipase assay; assay type: biochemical; parameters: 6x histidine-tag (C); made in house; host or cells: 293T cells (ATCC CRL-3216); details: for phospholipase efficiency: kcat divided by Km; for increase of phospholipase Vmax / increase of phospholipase efficiency: versus LCAT without compounds
# T1 sequence (P04180 25-440): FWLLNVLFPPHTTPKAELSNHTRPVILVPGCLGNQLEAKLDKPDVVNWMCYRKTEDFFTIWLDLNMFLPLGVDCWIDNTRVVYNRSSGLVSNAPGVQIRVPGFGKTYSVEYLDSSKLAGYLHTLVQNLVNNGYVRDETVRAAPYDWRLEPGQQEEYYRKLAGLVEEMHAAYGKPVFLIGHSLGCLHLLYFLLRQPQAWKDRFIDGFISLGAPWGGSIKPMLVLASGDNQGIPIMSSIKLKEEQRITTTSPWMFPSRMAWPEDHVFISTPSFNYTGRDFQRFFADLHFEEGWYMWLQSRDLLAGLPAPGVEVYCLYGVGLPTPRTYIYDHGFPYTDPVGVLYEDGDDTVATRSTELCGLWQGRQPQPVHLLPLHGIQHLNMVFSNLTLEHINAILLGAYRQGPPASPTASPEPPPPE
# Protocol: The phospholipase activity of LCAT was evaluated by using MUP as a substrate. The reaction was monitored with the increased fluorescence signal due to the formation of the reaction product MU. The assay was performed at room temperature in reaction buffer (0.1 M sodium phosphate buffer, pH 7.4). 55 µL of LCAT in reaction buffer (0.01 mg/mL) were incubated at 37 °C gently shaken with 0.41 µL of PAM (2 mg/mL in DMSO) or DMSO. After 1 h incubation, 2 µL of each reaction (LCAT + DMSO, LCAT + PAM, reaction buffer + PAM) was added to a black 384 well microplate, low volume (Corning). A MUP stock solution 1 mg/mL in DMSO + 3% Triton X-100 was diluted in a reaction buffer to 0, 10, 40, 60 and 120 µM. 18 µL of each dilution was added to the plate to start the reaction. The MUP stock solution was diluted immediately before use due to the self-hydrolysis of MUP to MU in aqueous buffers. The phospholipase activity of LCAT was monitored by fluorescence signal using Varioskan LUX (Thermo Scientific) plate reader at an excitation wavelength of 340 nm and an emission wavelength of 460 nm every 10 min for 60 min. Background signal due to MUP self-hydrolysis was subtracted from each result. Reactions were performed in triplicates with three independent experiments. Reaction rates were obtained by dividing the data by the assay time. To calculate the amount of MU produced in each reaction, a standard curve was generated from a MU stock solution 100 mM in DMSO and diluted further in reaction buffer. The phospholipase activity (MU mM) was plotted as a function of the MUP concentration. Data were fitted to the Michaelis-Menten kinetic equation by non-linear regression. Apparent Vmax and Km were calculated with OriginPro 2021b (MA, USA) software (version 9.8.5.212), while phospholipase efficiency of each PAM was calculated by dividing kcat by Km. The absence of fluorescence interference coming from PAMs was checked at an excitation wavelength of 340 nm before starting the assay (Supplementary Fig. 3). The phospholipase activities of our PAMs were compared to a positive control compound A (Supplementary Fig. 2)[17].
# LCAT [2] = molecular target: T1, LCAT; experiment: DHE esterification acyltransferase assay with synthetic HDL (sHDL); assay type: biochemical; parameters: 6x histidine-tag (C); made in house; host or cells: 293T cells (ATCC CRL-3216); details: for acyltransferase Emax / Emax: normalized against LCAT + DMSO; for acyltransferase efficiency: kcat divided by Km
# Protocol: The acyltransferase activity of LCAT was measured by using the fluorescent sterol DHE as a substrate. DHE is integrated in the structure of discoidal synthetic HDL (sHDL) made of peptides (22A) and phospholipids (DMPC). As a consequence of the acyltransferase activity of LCAT, DHE is esterified and stored in the inner core of sHDL as DHE-ester. The esterification is responsible for a shift in the emission wavelength of DHE from 372 nm to 425 nm, allowing the exclusive detection of DHE-ester and monitoring of the reaction.
# DHE-sHDL was prepared via thermal cycling. In a glass vial, DHE and DMPC dissolved in chloroform were mixed with a molar ratio of 1:9. The organic solvent was dried with Rotavapor R-200 (BUCHI, Switzerland) at room temperature. The resulting dried thin lipid layer was hydrated with assay buffer (PBS 20 mM + EDTA 1 mM) and vortexed until complete dissolution. The solution was homogenized in a water bath sonicator at room temperature until transparency. 22A peptides dissolved in assay buffer were added to the vial (lipid to protein 2:1 w/w). The solution was incubated via three heating-cooling cycles (50 °C x 3 min; 4 °C x 3 min). […] The acyltransferase activity assay was performed in 384 well low volume black microplates with a final volume of 25 µL. PAM (0.1 mg/mL in DMSO) or DMSO were incubated with LCAT (5 µg/mL in assay buffer + 60 µM albumin (Merck)) 1:100 v/v at 37 °C gently shaken. After 30 min incubation, 10 µL of each reaction (LCAT + DMSO or LCAT + PAM) was added to the plate. To start the reaction, 10 µL of DHE-sHDL solution were added in the wells. The plate was incubated for 1 h at 37 °C gently shaken. Reactions were stopped by the addition of 5 µL of stop solution (assay buffer + 5 units/mL cholesterol oxidase COx + 7% Triton X-100). Plates went through a second round of incubation at 37 °C gently shaken for 1 h to extinguish the residual fluorescence of unesterified DHE. […] DHE-ester fluorescence was detected at an excitation wavelength of 325 nm and an emission wavelength of 425 nm using Varioskan LUX. Reactions without LCAT were used for background subtraction, while reactions without LCAT and stop solution without COx were used to generate a standard curve for DHE (λex 325 nm, λem 372 nm). Reactions were performed in triplicates with three independent experiments. Due to the light sensitivity of DHE, samples were protected from light during the entire preparation and assay. Data was processed via background subtraction, divided by the slope of the standard curve to obtain the amount of DHE-esters in every well and then divided further by the reaction time to determine the rate. The acyltransferase activity (DHE-ester formed) was plotted as a function of the DHE concentration. Data were fitted to the Michaelis-Menten kinetic equation by non-linear regression. Apparent Vmax and Km were calculated using OriginPro 2021b software, while acyltransferase efficiency of each PAM was calculated by dividing kcat by Km. […] The acyltransferase activities of our PAMs were compared to the reference compound A (Supplementary Fig. 2).
# PAMs were diluted in DMSO reaching a final concentration of 0.001, 0.01, 0.1, 1 and 10 µM in the wells. Reactions were conducted exactly as above, using the same LCAT concentration and the same volumes. The experiment was performed in triplicate with three independent experiments. Fluorescence signals were processed via background subtraction (DHE-sHDL + buffer + stop solution), divided by the slope of the standard curve to obtain the amount of DHE-esters in every well and then divided further by the reaction time to determine the rate. Data were normalized against no PAM control (LCAT + DMSO). The acyltransferase activity (DHE-ester formed) was plotted as a function of the PAM concentration.
# LCAT [3] = molecular target: T1, LCAT; parameters: method as in PMID 4214409; details: blood of diabetes patients before and after insulin treatment; cited from earlier work
# [4] = cited from earlier work
# LCAT [5] = test system: LCAT; parameters: method as in PMID 30479275; details: MUP assay; cited from earlier work
# [6] = parameters: method as in PMID 9827549, PMID 19110406; details: cited from earlier work
# [7] = MUP concentration varied, mean ± SEM
# [8] = DHE 50 µM, PAM concentration varied
# [9] = PAM 3 µM, DHE concentration varied, mean ± SEM
# [10] = DHE 50 µM, PAM concentration varied, mean ± SEM of triplicate, read-out: acyltransferase EC50
# [11] = PAM 3 µM, versus LCAT without compounds
compound,measurement,setting,value
COC(=O)Nc1nc2ccc(C(=O)c3ccccc3)cc2[nH]1 [mebendazole],phospholipase Vmax,LCAT [1]; [7],7.95 ± 1.90 µM h^− 1
same,phospholipase efficiency,LCAT [1],6.28 ± 1.06 µM⁻¹ h⁻¹
same,effect on acyltransferase activity at 21.6 µM DHE,"LCAT [2]; 21.6 µM DHE, PAM 3 µM",inhibited activity slightly
same,increase of LCAT acyltransferase activity,LCAT [2]; [8],no effect
same,acyltransferase EC50,"LCAT [2]; DHE 50 µM, PAM concentration varied, mean ± SEM of triplicate",no effect
same,acyltransferase Emax,LCAT [2]; DHE 50 µM,no effect
same,acyltransferase Vmax,LCAT [2]; [9],6.58 ± 0.26 µM h^− 1
same,acyltransferase efficiency,LCAT [2]; PAM 3 µM,18.92 ± 2.45 µM⁻¹ h⁻¹
O=C1c2c(O)cc(O)cc2OC(c2ccc(O)c(O)c2)C1O (stereo not shown) [taxifolin],phospholipase Vmax,LCAT [1]; [7],10.71 ± 0.49 µM h^− 1
same,phospholipase efficiency,LCAT [1],19.60 ± 0.01 µM⁻¹ h⁻¹
same,increase of LCAT acyltransferase activity,LCAT [2]; [8],roughly 100%
same,EC50,LCAT [2]; [10],120 ± 40 nM
same,Emax,LCAT [2]; DHE 50 µM,211 ± 21.4%
same,acyltransferase Vmax,LCAT [2]; [9],13.55 ± 0.67 µM h^− 1
same,acyltransferase efficiency,LCAT [2]; PAM 3 µM,22.69 ± 1.94 µM⁻¹ h⁻¹
OC[C@H]1OC(O)[C@H](O)[C@@H](O)[C@@H]1O (stereo partly shown) [glucose],activation of LCAT,LCAT [3],cannot activate LCAT
O=c1cc(-c2ccc(O)c(O)c2)oc2cc(O)cc(O)c12 [luteolin],phospholipase Vmax,LCAT [1]; [7],10.91 ± 1.50 µM h^− 1
same,phospholipase efficiency,LCAT [1],17.11 ± 4.72 µM⁻¹ h⁻¹
same,increase of LCAT acyltransferase activity,LCAT [2]; [8],roughly 100%
same,EC50,LCAT [2]; [10],100 ± 10 nM
same,Emax,LCAT [2]; DHE 50 µM,191 ± 16.1%
same,acyltransferase Vmax,LCAT [2]; [9],11.71 ± 0.43 µM h^− 1
same,improvement of acyltransferase efficiency,LCAT [2]; [11],roughly 100%
same,acyltransferase efficiency,LCAT [2]; PAM 3 µM,36.95 ± 2.13 µM⁻¹ h⁻¹
Cc1ccc([C@@H]2O[C@H](CO)[C@@H](O)[C@H](O)[C@H]2O)cc1Cc1ccc(-c2ccc(F)cc2)s1 [canagliflozin],Km,LCAT [1]; [7],22.7 ± 0.95 µM
same,phospholipase Vmax,LCAT [1]; [7],15.70 ± 0.66 µM h^− 1
same,phospholipase efficiency,LCAT [1],34.63 ± 0.97 µM⁻¹ h⁻¹
same,increase of phospholipase Vmax,LCAT [1],130%
same,increase of phospholipase efficiency,LCAT [1],340%
same,bound to proteins in plasma,[4],99%
same,increase of LCAT acyltransferase activity,LCAT [2]; [8],150%
same,EC50,LCAT [2]; [10],80 ± 20 nM
same,acyltransferase Emax,LCAT [2]; DHE 50 µM,254.34±23.72%
same,Km,LCAT [2]; [9],8.37 ± 0.57 µM
same,acyltransferase Vmax,LCAT [2]; [9],14.78 ± 0.34 µM h^− 1
same,improvement of acyltransferase efficiency,LCAT [2]; [11],roughly 100%
same,increase of acyltransferase Vmax,LCAT [2]; [11],70%
same,acyltransferase efficiency,LCAT [2]; PAM 3 µM,44.46 ± 2.43 µM⁻¹ h⁻¹
N#Cc1cnc(N2CCC(c3n[nH]c4c3C(O)(C(F)(F)F)CC(=O)N4)CC2)cc1C(F)(F)F (stereo not shown) [1b],phospholipase activity compared to LCAT,LCAT [5],230%
CCOc1ccc(Cc2cc([C@@H]3O[C@H](CO)[C@@H](O)[C@H](O)[C@H]3O)ccc2Cl)cc1 [dapagliflozin],phospholipase Vmax,LCAT [1]; [7],11.68 ± 1.15 µM h^− 1
same,phospholipase efficiency,LCAT [1],12.82 ± 2.80 µM⁻¹ h⁻¹
same,increase of phospholipase Vmax,LCAT [1],70%
same,bound to proteins in plasma,[4],91%
same,increase of LCAT acyltransferase activity,LCAT [2]; [8],roughly 100%
same,EC50,LCAT [2]; [10],80 ± 40 nM
same,Emax,LCAT [2]; DHE 50 µM,196 ± 13.4%
same,acyltransferase Vmax,LCAT [2]; [9],12.13 ± 0.46 µM h^− 1
same,acyltransferase efficiency,LCAT [2]; PAM 3 µM,31.54 ± 2.93 µM⁻¹ h⁻¹
OC[C@H]1O[C@@](CO)(O[C@H]2O[C@H](CO)[C@@H](O)[C@H](O)[C@H]2O)[C@@H](O)[C@@H]1O [sucrose],oral bioavailability,[6],poor
same,phospholipase Vmax,LCAT [1]; [7],8.79 ± 0.81 µM h^− 1
same,phospholipase efficiency,LCAT [1],22.43 ± 4.38 µM⁻¹ h⁻¹
same,increase of phospholipase efficiency,LCAT [1],180%
same,EC50,LCAT [2],120 ± 60 nM
same,increase of LCAT acyltransferase activity,LCAT [2]; [8],roughly 100%
same,Emax,LCAT [2]; DHE 50 µM,176 ± 12.5%
same,acyltransferase Vmax,LCAT [2]; [9],11.18 ± 0.80 µM h^− 1
same,improvement of acyltransferase efficiency,LCAT [2]; [11],roughly 100%
same,acyltransferase efficiency,LCAT [2]; PAM 3 µM,38.88 ± 9.05 µM⁻¹ h⁻¹
